Reference: US11401278B2, “Macrocyclic indole derivatives” (The Broad Institute, Inc., priority 2017, dated 2022)
Several values for one entry are separate records, joined by “and”; a condition that tells them apart may be missing. Equal entries are not always repeated. Structures can show the parent of a compound that is named as a salt. Where two headings read alike, the source gives them in different places.

Columns and labels:
AMO-1 = test: Antiproliferation assay (Assay 7), AMO-1; format: cell-based; details: CellTiter-Glo, several values per example
Method in brief: (§1)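 Plate cells in treatment and day 0 reference plates; read day 0 plate with CellTiter-Glo after 10 min; incubate treated plates 72 h at 37° C; read them identically.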

SUDHL10 = test: Induction of cytotoxicity (Assay 6), SUDHL10; details: Homo sapiens, SU-DHL10, 5 h, read-out: Cytotox SUDHL10 [M] (median) IC50, CellTiter-Glo, 5 hours, SUDHL10
SUDHL5 [1] = test: Induction of caspase-3/7 activity (Assay 4), SUDHL5; format: cell-based; details: Homo sapiens, SU-DHL-5, 3 h, caspase-3/7 induction, median
Method in brief: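 DLBCL cells were exposed to compounds for 3 hours at 37 °C, then caspase-3/7 activation was read with Caspase-Glo 3/7 reagent. After subtracting medium-only background, EC50s were derived with fixed C0=1 and the reference compound's maximal induction as plateau.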

BCL-2 = BCL-2 (Homo sapiens (Human), UniProt P10415); test: Protein-protein interaction assay BCL-2/Bad BH3 peptide (BCL-2 assay, TR-FRET); format: binding; details: His-BCL-2 / Bad BH3 peptide, median
Chain of BCL-2 (P10415 other isoform, or with tags, fused parts or gaps): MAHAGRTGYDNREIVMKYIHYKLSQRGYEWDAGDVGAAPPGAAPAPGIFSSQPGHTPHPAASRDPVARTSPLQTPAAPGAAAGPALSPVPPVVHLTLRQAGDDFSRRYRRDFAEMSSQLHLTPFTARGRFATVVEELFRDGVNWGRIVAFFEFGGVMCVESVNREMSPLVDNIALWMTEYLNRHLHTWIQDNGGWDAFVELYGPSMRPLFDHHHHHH
Experimental: Assay 3 Protein-Protein Interaction Assay: BCL-2/Bad BH3 Peptide (BCL-2 Assay)
The dose-dependent inhibition by the compounds described in this invention of the interaction between BCL-2 and the BH3 domain of Bad (both human) was determined using a steady state binding competition assay with time-resolved fluorescence energy transfer (TR-FRET) readout. For that purpose BCL-2 (amino acids 1-211, C-terminal fused to a hexahistidine (6×His) tag (SEQ ID 5) and a synthetic Bad BH3-derived peptide of sequence Biotin-PEG2-PEG2-NLWAAQRYGRELRR-Nle-SDEFVDSFKK-amide (SEQ ID 4) served as protein receptor and tracer ligand respectively. The recombinant BCL-2 protein (expressed in E. coli) was purchased from BPS Bioscience (San Diego, Calif., USA). The Bad BH3-derived peptide can be obtained from e.g. Biosyntan (Berlin, Germany).
In the assay 11 different concentrations of each compound (0.1 nM, 0.33 nM, 1.1 nM, 3.8 nM, 13 nM, 44 nM, 0.15 μM, 0.51 μM, 1.7 μM, 5.9 μM and 20 μM) were typically measured as duplicates in the same microtiter plate. For that, 100-fold concentrated DMSO solutions were prepared by serial dilutions (1:3.4) of a 2 mM stock solution in a clear, 384-well microtiter plate (Greiner Bio-One, Frickenhausen, Germany). From there, 50 nl were transferred in a dark test plate (Greiner Bio-One, Frickenhausen, Germany). The assay was initiated by addition of 2 μl of a 2.5-fold concentrated His-BCL-2 solution (usually for a 1 nM end concentration in 5 μl reaction volume) in aqueous assay buffer [50 mM Tris/HCl pH 7, 100 mM sodium chloride (NaCl), 50 mM potassium fluoride (KF), 0.005% Tween-20, 2 mM DTT, 0.1% bovine gamma globulin (BGG)] to the compounds in the assay plate. This was followed by a 10-minute incubation step at 22° C. for pre-equilibration of the putative complex between His-BCL-2 and the compounds. After that, 3 μl of a 1.67-fold concentrated solution (in assay buffer) consisting of Bad BH3-derived peptide (1 nM end concentration) and TR-FRET detection reagents [1.67 nM anti-His-Eu cryptate and 1.67 nM streptavidin-XL665 (both from Cisbio Bioassays, Codolet, France)], were added.
The mixture was incubated in the dark for one hour at 22° C. and then overnight at 4° C. The formation of BCL-2/Bad complexes was determined by measuring the resonance energy transfer of the anti-His-Eu-cryptate antibody to the streptavidin-XL665 present in the reaction. For that purpose, the fluorescence emission at 620 nm and 665 nm after excitation at 330-350 nm was measured in a TR-FRET measuring instrument, for instance a Rubystar or a Pherastar (both from BMG Lab Technologies, Offenburg, Germany) or a Viewlux (Perkin-Elmer). The ratio of the emission at 665 nm and at 622 nm was used as indicator of the amount of BCL-2/Bad complexes present.
The resulting data (ratio) were normalized, taking 0% inhibition as the mean value of control measurements (usually 32 data points) where all reagents were included. In this case 50 nl DMSO were used instead of compounds. A 100% inhibition corresponded to the mean value of control measurements (usually 32 data points) where all reagents except BCL-2 were included. IC50 values were determined by regression analysis based on a 4 parameter equation (minimum, maximum, IC50, Hill; Y=Max+(Min−Max)/(1+(X/IC50)^HiII) using the Screener Software (Genedata).

SUDHL5 [2] = test: Antiproliferation assay (Assay 7), SUDHL5; format: cell-based; details: Homo sapiens, SU-DHL-5, 72 h, CellTiter-Glo, median, read-out: Antiproli SUDHL5 [M] (median) IC50
Method in brief: as §1

[3] = Homo sapiens, AMO1, 72 h, read-out: Antiproli AMO-1 [M] IC50

Compound | EC50 (SUDHL5 [1]) | IC50 (BCL-2) | IC50 (SUDHL5 [2]) | IC50 (AMO-1; 72 hours, listed as 07, read-out: Antiproli AMO-1 [M] IC50) | IC50 (AMO-1; [3]) | IC50 (SUDHL10) | IC50 (AMO-1; 72 hours, read-out: Antiproli AMO-1 [M] IC50)
CCc1c2c(nn1C)CN(C)S(=O)(=O)CCCn1c(C(=O)O)c(CCCOc3cccc4cc(F)ccc34)c3ccc(F)c-2c31 (racemic) [Example 7, (rac)-12-Ethyl-13-fluoro-1-(3-((6-fluoronaphthalen-1-yl)oxy)propyl)-8,11-dimethyl-5,6,9,11-tetrahydro-4H,8H-pyrazolo[3′,4′:4,5][1]thia[2,8]diazacycloundecino[6,7,8-hi]indole-2-carboxylic acid 7,7-dioxide] | 0.51 µM | 18 µM | 2.2e-07 M | 2.2e-06 M | 2e-06 M | 9.1e-07 M | –
CCc1c2c(nn1C)CN(CCCN1CCCC1=O)S(=O)(=O)CCCn1c(C(=O)O)c(CCCOc3cccc4ccccc34)c3cccc-2c31 (racemic) [Example 13, (rac)-12-Ethyl-11-methyl-1-(3-(naphthalen-1-yloxy)propyl)-8-(3-(2-oxopyrrolidin-1-yl)propyl)-5,6,9,11-tetrahydro-4H,8H-pyrazolo[3′,4′:4,5][1]thia[2,8]diazacycloundecino[6,7,8-hi]indole-2-carboxylic acid 7,7-dioxide] | 10 µM | > 20 µM | 4.4e-06 M | – | > 3.3e-05 M | 1.7e-05 M | –
CCc1c2c(nn1C)CN(CCN1CCCCC1)S(=O)(=O)CCCn1c(C(=O)O)c(CCCOc3cccc4ccccc34)c3cccc-2c31 (racemic) [Example 14, (rac)-12-Ethyl-11-methyl-1-(3-(naphthalen-1-yloxy)propyl)-8-(2-(piperidin-1-yl)ethyl)-4,5,6,8,9,11-hexahydropyrazolo[3′,4′:4,5][1,2,8]thiadiazacycloundecino[6,7,8-hi]indole-2-carboxylic acid 7,7-dioxide 2,2,2-trifluoroacetic acid salt] | 4.6 µM | > 20 µM | 3.3e-06 M | – | 1.9e-05 M | 8.5e-06 M | 1.7e-05 M
CCc1c2c(nn1C)CN(CCCN1CCOCC1)S(=O)(=O)CCCn1c(C(=O)O)c(CCCOc3cccc4ccccc34)c3cccc-2c31 (racemic) [Example 15, (rac)-12-Ethyl-11-methyl-8-(3-morpholinopropyl)-1-(3-(naphthalen-1-yloxy)propyl)-4,5,6,8,9,11-hexahydropyrazolo[3′,4′:4,5][1,2,8]thiadiazacycloundecino[6,7,8-hi]indole-2-carboxylic acid 7,7-dioxide 2,2,2-trifluoroacetic acid salt] | 2.5 µM | > 20 µM | 1.8e-06 M | – | 1.2e-05 M | 6.3e-06 M | –
Cc1c2c(nn1C)CN(C)S(=O)(=O)CCCn1c(C(=O)O)c(CCCOc3cccc4cc(F)ccc34)c3ccc(F)c-2c31 (racemic) [Example 25, (rac)-13-Fluoro-1-(3-((6-fluoronaphthalen-1-yl)oxy)propyl)-8,11,12-trimethyl-5,6,9,11-tetrahydro-4H,8H-pyrazolo[3′,4′:4,5][1]thia[2,8]diazacycloundecino[6,7,8-hi]indole-2-carboxylic acid 7,7-dioxide] | 0.67 µM | > 20 µM and 51 µM and 46 µM | 4.1e-07 M | – | 4.1e-06 M | 2e-06 M | –
Cc1c2c(nn1C)CN(C)S(=O)(=O)CCCn1c(C(=O)O)c(CCCOc3cccc4c3CCC4)c3ccc(F)c-2c31 (racemic) [Example 27, (rac)-1-(3-((2,3-Dihydro-1H-inden-4-yl)oxy)propyl)-13-fluoro-8,11,12-trimethyl-5,6,9,11-tetrahydro-4H,8H-pyrazolo[3′,4′:4,5][1]thia[2,8]diazacycloundecino[6,7,8-hi]indole-2-carboxylic acid 7,7-dioxide] | 0.7 µM | > 20 µM | 7.8e-07 M | – | 2.5e-06 M | 2.1e-06 M | –
Cc1cc(OCCCc2c(C(=O)O)n3c4c(c(F)ccc24)-c2c(nn(C)c2C)CN(C)S(=O)(=O)CCC3)cc(C)c1Cl (racemic) [Example 28, (rac)-1-(3-(4-Chloro-3,5-dimethylphenoxy)propyl)-13-fluoro-8,11,12-trimethyl-5,6,9,11-tetrahydro-4H,8H-pyrazolo[3′,4′:4,5][1]thia[2,8]diazacycloundecino[6,7,8-hi]indole-2-carboxylic acid 7,7-dioxide] | 2 µM | > 20 µM | 1.2e-06 M | – | 1.2e-05 M | 8e-06 M | –

More lines, in order of falling EC50 (SUDHL5 [1]), values ahead:

EC50 (SUDHL5 [1]) | IC50 (BCL-2) | IC50 (SUDHL5 [2]) | Compound | IC50 (AMO-1; 72 hours, listed as 07, read-out: Antiproli AMO-1 [M] IC50) | IC50 (AMO-1; [3]) | IC50 (SUDHL10) | IC50 (AMO-1; 72 hours, read-out: Antiproli AMO-1 [M] IC50)
32 µM | > 20 µM | 2.2e-05 M | CCc1c2c(nn1C)CN(CCCN1CCCC1)S(=O)(=O)CCCn1c(C(=O)O)c(CCCOc3cccc4ccccc34)c3cccc-2c31 (racemic) [Example 16, (rac)-12-Ethyl-11-methyl-1-(3-(naphthalen-1-yloxy)propyl)-8-(3-(pyrrolidin-1-yl)propyl)-5,6,9,11-tetrahydro-4H,8H-pyrazolo[3′,4′:4,5][1]thia[2,8]diazacycloundecino[6,7,8-hi]indole-2-carboxylic acid 7,7-dioxide] | – | > 3.3e-05 M | > 3.3e-05 M | –
13 µM | > 20 µM | 4.7e-06 M | CCc1c2c(nn1C)CNS(=O)(=O)CCCn1c(C(=O)O)c(CCCOc3cccc4ccccc34)c3cccc-2c31 (racemic) [Example 17, (rac)-12-Ethyl-11-methyl-1-(3-(naphthalen-1-yloxy)propyl)-4,5,6,8,9,11-hexahydropyrazolo[3′,4′:4,5][1,2,8]thiadiazacycloundecino[6,7,8-hi]indole-2-carboxylic acid 7,7-dioxide] | – | > 3.3e-05 M | 1.6e-05 M | –
3.8 µM | > 20 µM | 3.7e-06 M | CCc1c2c(nn1C)C(C)N(C)S(=O)(=O)CCCn1c(C(=O)O)c(CCCOc3cccc4ccccc34)c3cccc-2c31 (racemic) [Example 18, 12-Ethyl-8,9,11-trimethyl-1-(3-(naphthalen-1-yloxy)propyl)-5,6,9,11-tetrahydro-4H,8H-pyrazolo[3′,4′:4,5][1]thia[2,8]diazacycloundecino[6,7,8-hi]indole-2-carboxylic acid 7,7-dioxide (Mixture of Stereoisomers)] | – | 9.6e-06 M | 9.2e-06 M | –
1.3 µM | > 20 µM | 1.4e-06 M | Cc1c2c(nn1C)CN(C)S(=O)(=O)CCCn1c(C(=O)O)c(CCCOc3cccc4ccccc34)c3ccc(F)c-2c31 (racemic) [Example 26, (rac)-13-Fluoro-8,11,12-trimethyl-1-(3-(naphthalen-1-yloxy)propyl)-5,6,9,11-tetrahydro-4H,8H-pyrazolo[3′,4′:4,5][1]thia[2,8]diazacycloundecino[6,7,8-hi]indole-2-carboxylic acid 7,7-dioxide] | – | 7.1e-06 M | 3.4e-06 M | –
